Data taken from article PMC6210068 (ACS Omega, 2018).

Experiments:
DOR = DOR (Homo sapiens, UniProt P41143); test: Radioligand binding at DOR
KOR = KOR (Homo sapiens, UniProt P41145); test: biochemical; type: binding; details: for Ki: KOR, [3H]U69593, mean ± SEM, N = 2–4
MOR = MOR (Homo sapiens, UniProt P35372); test: biochemical; type: binding
rat kidney TSPO = rat kidney TSPO (Rattus norvegicus, UniProt P16257); test: Radioligand binding at TSPO; details: for Ki: TSPO, rat TSPO, [3H]PK11195
hDAT = hDAT (Homo sapiens, UniProt Q01959); test: Radioligand binding at DAT; details: 10 μM; [3H]WIN35428; negative = enhanced radioligand binding
hA3AR = molecular target: T1, hA3AR (Homo sapiens, UniProt P0DMS8); test: A3AR binding
T1 sequence (P0DMS8 1-318): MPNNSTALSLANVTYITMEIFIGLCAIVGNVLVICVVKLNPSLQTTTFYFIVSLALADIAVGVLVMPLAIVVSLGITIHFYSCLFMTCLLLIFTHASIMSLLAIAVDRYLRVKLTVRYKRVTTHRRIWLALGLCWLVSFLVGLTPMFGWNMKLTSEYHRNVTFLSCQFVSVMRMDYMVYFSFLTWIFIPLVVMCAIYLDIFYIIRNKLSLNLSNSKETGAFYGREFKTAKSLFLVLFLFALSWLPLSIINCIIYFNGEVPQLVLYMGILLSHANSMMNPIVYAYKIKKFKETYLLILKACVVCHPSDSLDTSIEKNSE

Sequence of rat kidney TSPO (P16257 whole entry): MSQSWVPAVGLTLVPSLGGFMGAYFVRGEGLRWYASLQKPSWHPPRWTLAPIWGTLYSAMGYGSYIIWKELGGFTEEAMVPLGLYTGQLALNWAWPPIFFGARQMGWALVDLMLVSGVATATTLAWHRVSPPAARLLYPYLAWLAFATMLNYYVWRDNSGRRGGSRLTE
Sequence of hDAT (Q01959 whole entry): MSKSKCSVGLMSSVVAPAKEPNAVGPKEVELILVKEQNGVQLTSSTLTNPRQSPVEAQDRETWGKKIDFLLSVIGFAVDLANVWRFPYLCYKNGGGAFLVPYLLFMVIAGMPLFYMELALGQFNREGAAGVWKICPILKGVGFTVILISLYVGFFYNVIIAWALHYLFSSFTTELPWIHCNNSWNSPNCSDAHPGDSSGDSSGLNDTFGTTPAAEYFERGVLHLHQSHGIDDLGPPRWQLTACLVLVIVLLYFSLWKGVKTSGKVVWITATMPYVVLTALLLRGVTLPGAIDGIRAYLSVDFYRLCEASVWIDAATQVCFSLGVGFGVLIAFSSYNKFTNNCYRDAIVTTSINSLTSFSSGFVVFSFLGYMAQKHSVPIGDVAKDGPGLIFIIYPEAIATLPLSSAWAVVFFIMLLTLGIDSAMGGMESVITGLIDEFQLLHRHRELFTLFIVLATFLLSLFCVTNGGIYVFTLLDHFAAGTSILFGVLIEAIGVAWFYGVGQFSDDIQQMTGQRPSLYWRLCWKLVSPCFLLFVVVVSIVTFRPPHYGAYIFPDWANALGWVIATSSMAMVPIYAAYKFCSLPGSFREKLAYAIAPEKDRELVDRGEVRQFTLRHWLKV
Sequence of DOR (P41143 whole entry): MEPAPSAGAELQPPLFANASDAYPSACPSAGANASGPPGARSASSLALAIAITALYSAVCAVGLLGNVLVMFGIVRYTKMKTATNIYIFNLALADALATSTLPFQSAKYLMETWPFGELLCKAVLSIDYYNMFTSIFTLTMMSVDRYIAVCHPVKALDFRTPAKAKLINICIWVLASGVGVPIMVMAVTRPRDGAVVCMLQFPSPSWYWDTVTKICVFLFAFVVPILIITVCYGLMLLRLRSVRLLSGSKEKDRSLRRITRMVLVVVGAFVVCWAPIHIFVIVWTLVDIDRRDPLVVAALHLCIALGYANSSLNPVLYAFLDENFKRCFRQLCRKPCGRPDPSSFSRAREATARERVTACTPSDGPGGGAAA
Sequence of KOR (P41145 whole entry): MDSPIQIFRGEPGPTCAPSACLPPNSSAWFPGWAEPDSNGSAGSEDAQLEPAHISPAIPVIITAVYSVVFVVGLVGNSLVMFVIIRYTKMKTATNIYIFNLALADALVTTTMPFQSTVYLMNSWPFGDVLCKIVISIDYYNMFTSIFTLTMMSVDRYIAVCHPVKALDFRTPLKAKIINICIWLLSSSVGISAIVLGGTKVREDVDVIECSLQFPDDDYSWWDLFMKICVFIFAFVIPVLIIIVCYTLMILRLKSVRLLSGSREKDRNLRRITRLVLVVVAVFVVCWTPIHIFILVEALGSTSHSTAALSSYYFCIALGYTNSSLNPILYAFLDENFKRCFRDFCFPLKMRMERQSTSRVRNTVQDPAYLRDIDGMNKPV
Sequence of MOR (P35372 whole entry): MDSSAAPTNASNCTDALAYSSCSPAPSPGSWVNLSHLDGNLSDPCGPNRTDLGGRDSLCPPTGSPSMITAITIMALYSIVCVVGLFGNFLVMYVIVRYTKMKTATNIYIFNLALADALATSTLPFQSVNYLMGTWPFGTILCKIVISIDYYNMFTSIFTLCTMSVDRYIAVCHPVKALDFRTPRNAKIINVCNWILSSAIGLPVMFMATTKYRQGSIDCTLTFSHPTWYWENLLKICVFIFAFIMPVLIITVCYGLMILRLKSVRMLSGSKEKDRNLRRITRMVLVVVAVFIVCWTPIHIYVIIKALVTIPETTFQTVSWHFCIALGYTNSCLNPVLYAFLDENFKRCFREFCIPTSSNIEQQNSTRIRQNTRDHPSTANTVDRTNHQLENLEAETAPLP

Row | SMILES | Ki (KOR) [nM] | DAT, inhibition, % of control at 10 μM (hDAT) | Ki (hA3AR) [nM] | DOR, inhibition of radioligand binding at 10 μM (class) (DOR; Table 2) | MOR, inhibition of radioligand binding at 10 μM (class) (MOR; Table 2) | also measured
1 | CCOC(=O)[C@@]12C[C@@H]1[C@@H](n1ccc3c(NCCc4ccccc4)nc(C#Cc4ccccc4)nc31)[C@@H]1OC(C)(C)O[C@@H]12 [compound 82, Ethyl(3aR,3bS,4aS,5R,5aS)-2,2-dimethyl-5-(4-(phenethylamino)-2-(phenylethynyl)-7H-pyrrolo[2,3-d]pyrimidin-7-yl)tetrahydrocyclopropa[3,4]cyclopenta[1,2-d][1,3]dioxole-3b(3aH)-carboxylate] | 217 ± 100 | –24% | 905 ± 144 | – | – | Ki (DOR): 881 ± 158 nM; Ki (MOR): > 10000 nM; Ki (rat kidney TSPO): > 10000 nM
2 | CNc1nc(C#Cc2ccc(Cl)s2)nc2c1ncn2[C@H]1[C@H](O)[C@H](O)[C@]2(C(=O)OCCC3CCCCC3)C[C@H]12 [compound 34] | > 10000 | <20% | 334 ± 132 | ^c (30–50% inhibition of radioligand binding at 10 μM) | ^d (<30% inhibition of radioligand binding at 10 μM) | TSPO, inhibition of radioligand binding at 10 μM (class) (rat kidney TSPO; Table 2): ^c (30–50% inhibition of radioligand binding at 10 μM)
3 | CNc1nc(C#Cc2ccc(Cl)s2)nc2c1ncn2[C@H]1[C@H](O)[C@H](O)[C@]2(C(=O)OC(C)C)C[C@H]12 [compound 31] | ~400 | <20% | – | ^d (<30% inhibition of radioligand binding at 10 μM) | ^d (<30% inhibition of radioligand binding at 10 μM) | KOR, inhibition of radioligand binding at 10 μM (class) (KOR; Table 2): ^d (<30% inhibition of radioligand binding at 10 μM); TSPO, inhibition of radioligand binding at 10 μM (class) (rat kidney TSPO; Table 2): ^d (<30% inhibition of radioligand binding at 10 μM)
4 | CNC(=O)[C@H]1O[C@@H](n2cnc3c(NC)nc(C#Cc4ccc(Cl)s4)nc32)[C@H](O)[C@@H]1O [compound 45] | – | –321% | – | – | – | KOR, inhibition of radioligand binding at 10 μM (class) (KOR; Table 3): ^e (<30% inhibition of radioligand binding at 10 μM)
5 | CNc1nc(C#Cc2ccc(Cl)s2)nc2c1ncn2[C@H]1[C@H](O)[C@H](O)[C@]2(C(=O)OCCCc3ccccc3)C[C@H]12 [compound 37] | 8920 ± 1080 | <20% | 132 ± 68 | ^d (<30% inhibition of radioligand binding at 10 μM) | ^d (<30% inhibition of radioligand binding at 10 μM) | Ki (rat kidney TSPO): 1090 ± 290 nM
6 | O[C@@H]1[C@H](O)[C@@H]2C[C@@H]2[C@H]1n1ccc2c(NC(C3CC3)C3CC3)nc(I)nc21 [compound 58, (1R,2R,3S,4R,5S)-4-(4-((Dicyclopropylmethyl)amino)-2-iodo-7H-pyrrolo[2,3-d]pyrimidin-7-yl)bicyclo[3.1.0]hexane-2,3-diol] | – | – | 5310 ± 1310 | – | – | DOR, inhibition of radioligand binding at 10 μM (class) (DOR; Table 5): ^e (<30% inhibition of radioligand binding at 10 μM); KOR, inhibition of radioligand binding at 10 μM (class) (KOR; Table 5): ^e (<30% inhibition of radioligand binding at 10 μM); MOR, inhibition of radioligand binding at 10 μM (class) (MOR; Table 5): ^e (<30% inhibition of radioligand binding at 10 μM); TSPO, inhibition of radioligand binding at 10 μM (class) (rat kidney TSPO; Table 5): ^e (<30% inhibition of radioligand binding at 10 μM)
7 | O[C@@H]1[C@H](O)[C@@H]2C[C@@H]2[C@H]1n1cnc2c(NCc3cccc(Cl)c3)nc(C#Cc3ccc(F)c(F)c3)nc21 [compound 3] | – | 16% | – | – | – | DOR, inhibition of radioligand binding at 10 μM (class) (DOR; Table 4): ^g (<30% inhibition of radioligand binding at 10 μM)
8 | CNc1nc(C#Cc2ccc(Cl)s2)nc2c1ncn2[C@H]1[C@H](O)[C@H](O)[C@]2(C(=O)O)C[C@H]12 [compound 38] | – | –50% | – | ^d (<30% inhibition of radioligand binding at 10 μM) | ^d (<30% inhibition of radioligand binding at 10 μM) | KOR, inhibition of radioligand binding at 10 μM (class) (KOR; Table 2): ^d (<30% inhibition of radioligand binding at 10 μM); TSPO, inhibition of radioligand binding at 10 μM (class) (rat kidney TSPO; Table 2): ^d (<30% inhibition of radioligand binding at 10 μM)
9 | CCCCOC(=O)[C@@]12C[C@@H]1[C@@H](n1cnc3c(NC)nc(C#Cc4ccc(Cl)s4)nc31)[C@H](O)[C@@H]2O [compound 32] | 1210 ± 100 | –285% | – | ^d (<30% inhibition of radioligand binding at 10 μM) | ^d (<30% inhibition of radioligand binding at 10 μM) | Ki (rat kidney TSPO): > 10000 nM
10 | O[C@@H]1[C@H](O)[C@@H]2C[C@@H]2[C@H]1n1cnc2c(NCc3cccc(Cl)c3)ncnc21 [compound 48] | – | –2% | – | – | – | DOR, inhibition of radioligand binding at 10 μM (class) (DOR; Table 4): ^g (<30% inhibition of radioligand binding at 10 μM); TSPO, inhibition of radioligand binding at 10 μM (class) (rat kidney TSPO; Table 4): ^g (<30% inhibition of radioligand binding at 10 μM)
11 | CNC(=O)[C@@]12C[C@@H]1[C@@H](n1ccc3c(NC)ncnc31)[C@H](O)[C@@H]2O [compound 17] | – | –14% | 498 ± 46 | – | – | DOR, inhibition of radioligand binding at 10 μM (class) (DOR; Table 1): ^e (30–50% inhibition of radioligand binding at 10 μM); TSPO, inhibition of radioligand binding at 10 μM (class) (rat kidney TSPO; Table 1): ^e (30–50% inhibition of radioligand binding at 10 μM)
